ChEMBL document CHEMBL3044552, “Synthesis and biological evaluation of 1-(3-chloro-2-oxo-4-phenylazetidin-1-yl)-3-(2-oxo-2-(10H-phenothiazin-10-yl)ethyl)urea derivatives” (Med Chem Res, 2013)
In brackets after ≈: the same amount, converted by molar mass. Activity calls are given as the source filed them. No cut-off for these calls is given here.

Experiments:
[1] = test system: Trichophyton rubrum; experiment: Antifungal activity against Trichophyton rubrum after 18 hr by serial dilution method; format: functional
[2] = test system: Aspergillus niger; experiment: Antifungal activity against Aspergillus niger after 18 hr by serial dilution method; format: functional
[3] = test system: Monascus purpureus; experiment: Antifungal activity against Monascus purpureus after 18 hr by serial dilution method; format: functional
[4] = test system: Candida albicans; experiment: Antifungal activity against Candida albicans after 18 hr by serial dilution method; format: functional
[5] = test system: Staphylococcus epidermidis; experiment: Antibacterial activity against Staphylococcus albus after 18 hr by serial dilution method; format: functional
[6] = test system: Bacillus subtilis; experiment: Antibacterial activity against Bacillus subtilis after 18 hr by serial dilution method; format: functional
[7] = test system: Staphylococcus aureus; experiment: Antibacterial activity against Staphylococcus aureus after 18 hr by serial dilution method; format: functional
[8] = test system: Micrococcus luteus; experiment: Antibacterial activity against Micrococcus luteus after 18 hr by serial dilution method; format: functional
[9] = test system: Vibrio cholerae; experiment: Antibacterial activity against Vibrio cholerae after 18 hr by serial dilution method; format: functional
[10] = test system: Salmonella paratyphi; experiment: Antibacterial activity against Salmonella enterica subsp. enterica serovar Paratyphi A after 18 hr by serial dilution method; format: functional
[11] = test system: Escherichia coli; experiment: Antibacterial activity against Escherichia coli after 18 hr by serial dilution method; format: functional
[12] = test system: Pseudomonas aeruginosa; experiment: Antibacterial activity against Pseudomonas aeruginosa after 18 hr by serial dilution method; format: functional
[13] = test system: Trichophyton rubrum; experiment: Antifungal activity against Trichophyton rubrum after 24 hr by disk diffusion method; format: functional
[14] = test system: Aspergillus niger; experiment: Antifungal activity against Aspergillus niger after 24 hr by disc diffusion method; format: functional
[15] = test system: Monascus purpureus; experiment: Antifungal activity against Monascus purpureus after 24 hr by disk diffusion method; format: functional
[16] = test system: Candida albicans; experiment: Antifungal activity against Candida albicans after 24 hr by disk diffusion method; format: functional
[17] = test system: Staphylococcus epidermidis; experiment: Antibacterial activity against Staphylococcus albus after 24 hr by disk diffusion method; format: functional
[18] = test system: Bacillus subtilis; experiment: Antibacterial activity against Bacillus subtilis after 24 hr by disk diffusion method; format: functional
[19] = test system: Staphylococcus aureus; experiment: Antibacterial activity against Staphylococcus aureus after 24 hr by disk diffusion method; format: functional
[20] = test system: Micrococcus luteus; experiment: Antibacterial activity against Micrococcus luteus after 24 hr by disk diffusion method; format: functional
[21] = test system: HeLa; experiment: Cytotoxicity against Homo sapiens (human) HeLa cells after 48 hr by MTT assay; format: functional, cell-based
[22] = test system: HeLa; experiment: Growth inhibition of Homo sapiens (human) HeLa cells at 100 uM after 48 hr by MTT assay; format: functional; conditions: read-out: GI
[23] = test system: HeLa; experiment: Growth inhibition of Homo sapiens (human) HeLa cells at 50 uM after 48 hr by MTT assay; format: functional; conditions: read-out: GI
[24] = test system: HeLa; experiment: Growth inhibition of Homo sapiens (human) HeLa cells at 25 uM after 48 hr by MTT assay; format: functional; conditions: read-out: GI
[25] = test system: HeLa; experiment: Growth inhibition of Homo sapiens (human) HeLa cells at 12.5 uM after 48 hr by MTT assay; format: functional; conditions: read-out: GI
[26] = test system: HeLa; experiment: Growth inhibition of Homo sapiens (human) HeLa cells at 6.25 uM after 48 hr by MTT assay; format: functional; conditions: read-out: GI
[27] = Antioxidant activity assessed as reduction of ferric ion after 30 min by spectrophotometric analysis; format: functional
[28] = test system: Radical scavenging activity; experiment: Antioxidant activity assessed as DPPH radical scavenging activity after 30 min by spectrophotometric analysis; format: functional
[29] = test system: Pseudomonas aeruginosa; experiment: Antibacterial activity against Pseudomonas aeruginosa after 24 hr by disc diffusion method; format: functional
[30] = test system: Escherichia coli; experiment: Antibacterial activity against Escherichia coli after 24 hr by disc diffusion method; format: functional
[31] = test system: Salmonella paratyphi; experiment: Antibacterial activity against Salmonella enterica subsp. enterica serovar Paratyphi A after 24 hr by disk diffusion method; format: functional
[32] = test system: Vibrio cholerae; experiment: Antibacterial activity against Vibrio cholerae after 24 hr by disk diffusion method; format: functional
[33] = test system: Mycobacterium tuberculosis; experiment: Growth inhibition of Mycobacterium tuberculosis H37Rv at 1 ug/ml after 7 days by resazurin microplate assay; format: functional, organism-based
[34] = test system: Mycobacterium tuberculosis; experiment: Growth inhibition of Mycobacterium tuberculosis H37Rv at 100 ug/ml after 7 days by resazurin microplate assay; format: functional, organism-based
[35] = test system: Mycobacterium tuberculosis; experiment: Growth inhibition of Mycobacterium tuberculosis H37Rv at 10 ug/ml after 7 days by resazurin microplate assay; format: functional, organism-based

Compound	MIC [1]	MIC [2]	MIC [3]	MIC [4]	MIC [5]	MIC [6]	MIC [7]	MIC [8]	MIC [9]	MIC [10]	MIC [11]	MIC [12]	diameter of the inhibition zone (DIZ) [13]	diameter of the inhibition zone (DIZ) [14]	diameter of the inhibition zone (DIZ) [15]	diameter of the inhibition zone (DIZ) [16]	diameter of the inhibition zone (DIZ) [17]	diameter of the inhibition zone (DIZ) [18]	diameter of the inhibition zone (DIZ) [19]	diameter of the inhibition zone (DIZ) [20]	also measured
O=C(NCC(=O)N1c2ccccc2Sc2ccccc21)NN1C(=O)C(Cl)C1c1ccc(Cl)cc1 (centres undefined)	250 µg/mL (≈ 487 µM)	125 µg/mL (≈ 243 µM)	62.5 µg/mL (≈ 122 µM)	125 µg/mL (≈ 243 µM)	250 µg/mL (≈ 487 µM)	125 µg/mL (≈ 243 µM)	62.5 µg/mL (≈ 122 µM)	250 µg/mL (≈ 487 µM)	62.5 µg/mL (≈ 122 µM)	250 µg/mL (≈ 487 µM)	62.5 µg/mL (≈ 122 µM)	250 µg/mL (≈ 487 µM)	6 mm	12 mm	12 mm	7 mm	5 mm	7 mm	4 mm	5 mm	IC50 [21]: 111 µM; inhibition of growth at 100 µM [22]: 44.3%; inhibition of growth at 50 µM [23]: 33.6%; inhibition of growth at 25 µM [24]: 15.9%; inhibition of growth at 12.5 µM [25]: 5.9%; inhibition of growth at 6.25 µM [26]: 0.123%; Activity [27]: Active; EC50 [28]: 56 µg/mL (≈ 109 µM); diameter of the inhibition zone (DIZ) [29]: 5 mm; diameter of the inhibition zone (DIZ) [30]: 19 mm; diameter of the inhibition zone (DIZ) [31]: 5 mm; diameter of the inhibition zone (DIZ) [32]: 18 mm
O=C(NCC(=O)N1c2ccccc2Sc2ccccc21)NN1C(=O)C(Cl)C1c1ccc([N+](=O)[O-])cc1 (centres undefined)	250 µg/mL (≈ 477 µM)	500 µg/mL (≈ 954 µM)	62.5 µg/mL (≈ 119 µM)	62.5 µg/mL (≈ 119 µM)	250 µg/mL (≈ 477 µM)	250 µg/mL (≈ 477 µM)	250 µg/mL (≈ 477 µM)	250 µg/mL (≈ 477 µM)	250 µg/mL (≈ 477 µM)	125 µg/mL (≈ 239 µM)	62.5 µg/mL (≈ 119 µM)	500 µg/mL (≈ 954 µM)	5 mm	9 mm	13 mm	14 mm	4 mm	5 mm	4 mm	3 mm	growth inhibition (GI) [33]: inactive; IC50 [21]: 18.3 µM; inhibition of growth at 100 µM [22]: 89.5%; inhibition of growth at 50 µM [23]: 73.2%; inhibition of growth at 25 µM [24]: 56.5%; inhibition of growth at 12.5 µM [25]: 41.8%; inhibition of growth at 6.25 µM [26]: 23.6%; growth inhibition (GI) [34]: Active; growth inhibition (GI) [35]: inactive; diameter of the inhibition zone (DIZ) [30]: 15 mm; diameter of the inhibition zone (DIZ) [31]: 7 mm; diameter of the inhibition zone (DIZ) [32]: 5 mm
